Drawing on ChEMBL document CHEMBL3991601, “The target landscape of clinical kinase drugs” (Science, 2017), this text covers Kd for 10 compounds.

The source made the active and inactive calls.

Experiment [1] deals with Bone morphogenetic protein receptor type-1A (Homo sapiens, UniProt P36894).
The target in experiment [2] is T1, Ferrochelatase, mitochondrial (Homo sapiens, UniProt P22830).
T1 sequence (P22830 whole entry): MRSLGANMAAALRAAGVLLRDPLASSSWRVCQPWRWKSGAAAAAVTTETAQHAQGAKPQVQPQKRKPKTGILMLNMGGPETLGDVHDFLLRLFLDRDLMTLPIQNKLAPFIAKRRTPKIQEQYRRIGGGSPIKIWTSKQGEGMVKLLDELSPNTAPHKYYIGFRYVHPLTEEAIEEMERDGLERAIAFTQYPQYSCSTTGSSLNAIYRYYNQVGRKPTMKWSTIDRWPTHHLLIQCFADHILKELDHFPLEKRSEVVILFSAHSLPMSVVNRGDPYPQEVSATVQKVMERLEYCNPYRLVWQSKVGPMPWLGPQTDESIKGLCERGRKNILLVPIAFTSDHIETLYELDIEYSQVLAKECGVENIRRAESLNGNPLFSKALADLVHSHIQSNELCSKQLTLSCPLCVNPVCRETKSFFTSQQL

The target in the next experiment is T2, Glycine--tRNA ligase (Homo sapiens, UniProt P41250).
T2 sequence (P41250 whole entry): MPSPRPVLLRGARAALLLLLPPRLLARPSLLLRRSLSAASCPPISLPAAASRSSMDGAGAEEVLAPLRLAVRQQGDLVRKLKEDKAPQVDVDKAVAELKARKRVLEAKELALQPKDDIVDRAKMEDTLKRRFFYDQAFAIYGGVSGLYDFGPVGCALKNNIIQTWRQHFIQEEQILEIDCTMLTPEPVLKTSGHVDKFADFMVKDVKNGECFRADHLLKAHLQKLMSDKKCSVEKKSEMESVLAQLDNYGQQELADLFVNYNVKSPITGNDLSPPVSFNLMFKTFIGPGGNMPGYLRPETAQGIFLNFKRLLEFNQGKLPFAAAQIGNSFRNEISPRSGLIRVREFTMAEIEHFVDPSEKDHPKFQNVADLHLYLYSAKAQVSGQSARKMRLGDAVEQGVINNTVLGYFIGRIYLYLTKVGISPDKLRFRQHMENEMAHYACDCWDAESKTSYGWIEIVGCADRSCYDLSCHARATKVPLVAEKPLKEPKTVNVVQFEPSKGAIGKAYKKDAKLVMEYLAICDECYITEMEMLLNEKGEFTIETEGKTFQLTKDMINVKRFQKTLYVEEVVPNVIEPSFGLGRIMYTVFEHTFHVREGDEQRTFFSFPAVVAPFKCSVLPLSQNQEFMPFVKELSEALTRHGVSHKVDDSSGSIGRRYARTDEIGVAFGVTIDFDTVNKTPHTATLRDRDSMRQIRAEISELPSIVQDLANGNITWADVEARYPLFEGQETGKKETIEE

Experiment [3] addresses Insulin-like growth factor 1 receptor (Homo sapiens, UniProt P08069).
The target in the next experiment is LIM domain kinase 2 (Homo sapiens, UniProt P53671).
Chain of LIM domain kinase 2 (P53671 whole entry, the tested form may be a part): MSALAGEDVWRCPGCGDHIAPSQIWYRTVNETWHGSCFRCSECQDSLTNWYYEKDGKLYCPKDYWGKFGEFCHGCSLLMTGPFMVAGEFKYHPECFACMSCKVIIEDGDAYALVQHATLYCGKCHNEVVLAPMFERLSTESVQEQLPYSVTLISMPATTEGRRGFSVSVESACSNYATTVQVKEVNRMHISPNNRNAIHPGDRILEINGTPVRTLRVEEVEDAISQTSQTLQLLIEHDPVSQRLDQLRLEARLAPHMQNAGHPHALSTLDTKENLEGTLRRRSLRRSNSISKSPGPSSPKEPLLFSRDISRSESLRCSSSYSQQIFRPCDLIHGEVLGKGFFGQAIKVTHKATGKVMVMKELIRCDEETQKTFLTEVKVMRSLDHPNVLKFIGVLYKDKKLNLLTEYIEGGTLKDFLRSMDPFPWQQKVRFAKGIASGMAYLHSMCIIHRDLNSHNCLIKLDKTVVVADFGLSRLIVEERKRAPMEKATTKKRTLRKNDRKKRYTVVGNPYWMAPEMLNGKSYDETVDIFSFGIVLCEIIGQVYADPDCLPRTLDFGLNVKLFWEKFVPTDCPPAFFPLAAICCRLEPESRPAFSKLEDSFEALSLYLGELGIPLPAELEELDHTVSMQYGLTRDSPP
For experiment [4], the target named is Mitogen-activated protein kinase kinase kinase 1 (Homo sapiens, UniProt Q13233).
Chain of Mitogen-activated protein kinase kinase kinase 1 (Q13233 whole entry): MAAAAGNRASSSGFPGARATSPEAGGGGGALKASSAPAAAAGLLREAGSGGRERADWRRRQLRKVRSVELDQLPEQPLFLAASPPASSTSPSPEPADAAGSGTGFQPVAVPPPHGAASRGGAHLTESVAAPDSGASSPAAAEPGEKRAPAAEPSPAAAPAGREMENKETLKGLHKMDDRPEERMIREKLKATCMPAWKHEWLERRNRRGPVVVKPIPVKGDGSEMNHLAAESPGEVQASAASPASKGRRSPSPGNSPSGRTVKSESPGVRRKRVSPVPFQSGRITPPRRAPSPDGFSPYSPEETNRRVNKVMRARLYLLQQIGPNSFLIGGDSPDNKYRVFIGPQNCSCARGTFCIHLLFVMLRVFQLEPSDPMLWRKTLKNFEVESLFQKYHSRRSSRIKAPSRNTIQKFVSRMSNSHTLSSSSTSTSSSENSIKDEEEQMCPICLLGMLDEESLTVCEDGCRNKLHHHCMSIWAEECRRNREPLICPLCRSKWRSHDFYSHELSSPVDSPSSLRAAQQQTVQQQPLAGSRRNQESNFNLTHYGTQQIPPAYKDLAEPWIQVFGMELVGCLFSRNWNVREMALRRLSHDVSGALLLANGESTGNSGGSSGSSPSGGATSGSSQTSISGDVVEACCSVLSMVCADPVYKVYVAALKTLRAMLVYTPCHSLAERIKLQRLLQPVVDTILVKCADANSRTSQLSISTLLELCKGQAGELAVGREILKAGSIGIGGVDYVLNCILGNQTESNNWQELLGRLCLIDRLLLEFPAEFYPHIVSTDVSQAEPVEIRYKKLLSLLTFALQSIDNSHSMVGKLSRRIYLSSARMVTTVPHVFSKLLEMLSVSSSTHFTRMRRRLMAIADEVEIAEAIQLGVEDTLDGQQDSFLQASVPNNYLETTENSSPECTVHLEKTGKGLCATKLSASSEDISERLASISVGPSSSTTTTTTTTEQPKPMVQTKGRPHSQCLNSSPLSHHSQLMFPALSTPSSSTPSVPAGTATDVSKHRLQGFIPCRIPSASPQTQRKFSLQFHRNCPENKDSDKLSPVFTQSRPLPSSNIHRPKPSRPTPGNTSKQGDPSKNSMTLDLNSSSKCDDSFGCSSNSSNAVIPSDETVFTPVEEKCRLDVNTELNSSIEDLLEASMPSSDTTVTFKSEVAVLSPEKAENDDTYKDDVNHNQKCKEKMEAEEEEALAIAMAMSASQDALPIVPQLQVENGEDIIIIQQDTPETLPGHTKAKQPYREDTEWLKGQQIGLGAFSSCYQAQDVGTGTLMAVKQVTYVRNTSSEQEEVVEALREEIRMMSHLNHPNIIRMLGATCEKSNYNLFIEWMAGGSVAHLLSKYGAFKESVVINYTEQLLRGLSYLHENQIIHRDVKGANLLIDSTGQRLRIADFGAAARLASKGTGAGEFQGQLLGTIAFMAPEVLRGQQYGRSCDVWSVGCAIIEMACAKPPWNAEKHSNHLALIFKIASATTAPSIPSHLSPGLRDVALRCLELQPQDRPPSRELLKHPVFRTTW
The target of a further experiment is T3, Rab-like protein 3 (Homo sapiens, UniProt Q5HYI8).
T3 sequence (Q5HYI8 whole entry): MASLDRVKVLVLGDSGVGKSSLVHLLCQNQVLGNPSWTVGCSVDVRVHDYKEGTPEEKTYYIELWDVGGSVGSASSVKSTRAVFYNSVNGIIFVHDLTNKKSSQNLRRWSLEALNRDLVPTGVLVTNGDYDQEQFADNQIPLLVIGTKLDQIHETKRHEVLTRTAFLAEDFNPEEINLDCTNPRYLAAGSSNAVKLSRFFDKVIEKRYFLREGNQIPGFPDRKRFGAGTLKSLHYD

Experiment [5] concerns the target Rho-associated protein kinase 2 (Homo sapiens, UniProt O75116).
The target in experiment [6] is Serine/threonine-protein kinase SIK3 (Homo sapiens, UniProt Q9Y2K2).
Chain of Serine/threonine-protein kinase SIK3 (Q9Y2K2 whole entry): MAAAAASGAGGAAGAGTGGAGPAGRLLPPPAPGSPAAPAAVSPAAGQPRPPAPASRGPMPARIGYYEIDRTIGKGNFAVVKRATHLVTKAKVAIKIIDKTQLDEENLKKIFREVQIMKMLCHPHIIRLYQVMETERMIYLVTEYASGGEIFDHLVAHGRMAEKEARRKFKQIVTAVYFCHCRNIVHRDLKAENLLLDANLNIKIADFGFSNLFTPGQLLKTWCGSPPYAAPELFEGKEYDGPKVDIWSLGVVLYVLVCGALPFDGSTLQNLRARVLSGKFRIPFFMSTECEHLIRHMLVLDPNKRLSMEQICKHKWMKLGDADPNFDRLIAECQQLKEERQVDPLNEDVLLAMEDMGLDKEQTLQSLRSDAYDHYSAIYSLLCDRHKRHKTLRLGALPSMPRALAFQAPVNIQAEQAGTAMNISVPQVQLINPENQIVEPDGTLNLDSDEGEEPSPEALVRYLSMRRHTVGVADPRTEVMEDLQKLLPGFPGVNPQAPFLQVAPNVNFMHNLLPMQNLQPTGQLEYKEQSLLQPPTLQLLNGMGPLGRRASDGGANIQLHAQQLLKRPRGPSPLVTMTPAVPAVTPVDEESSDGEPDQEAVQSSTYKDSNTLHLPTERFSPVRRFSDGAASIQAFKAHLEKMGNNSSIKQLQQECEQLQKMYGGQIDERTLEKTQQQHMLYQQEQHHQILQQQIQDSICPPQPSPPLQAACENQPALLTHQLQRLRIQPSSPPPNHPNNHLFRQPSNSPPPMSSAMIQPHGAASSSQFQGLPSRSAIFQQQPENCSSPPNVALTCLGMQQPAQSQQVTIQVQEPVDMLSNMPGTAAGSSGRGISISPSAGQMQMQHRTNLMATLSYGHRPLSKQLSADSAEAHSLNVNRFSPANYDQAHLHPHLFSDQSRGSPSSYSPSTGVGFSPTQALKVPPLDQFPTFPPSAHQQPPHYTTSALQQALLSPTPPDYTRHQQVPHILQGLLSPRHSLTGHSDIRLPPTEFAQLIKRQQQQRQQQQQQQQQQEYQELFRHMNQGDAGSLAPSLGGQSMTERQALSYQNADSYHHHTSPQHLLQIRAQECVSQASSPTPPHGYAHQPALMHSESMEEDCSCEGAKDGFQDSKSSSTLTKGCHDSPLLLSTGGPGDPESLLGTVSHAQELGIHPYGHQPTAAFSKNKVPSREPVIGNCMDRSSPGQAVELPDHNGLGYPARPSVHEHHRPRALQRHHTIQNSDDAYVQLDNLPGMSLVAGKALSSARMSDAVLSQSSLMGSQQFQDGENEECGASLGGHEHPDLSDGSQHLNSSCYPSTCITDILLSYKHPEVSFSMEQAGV
In experiment [7] the target is T4, Exosome RNA helicase MTR4 (Homo sapiens, UniProt P42285).
T4 sequence (P42285 whole entry): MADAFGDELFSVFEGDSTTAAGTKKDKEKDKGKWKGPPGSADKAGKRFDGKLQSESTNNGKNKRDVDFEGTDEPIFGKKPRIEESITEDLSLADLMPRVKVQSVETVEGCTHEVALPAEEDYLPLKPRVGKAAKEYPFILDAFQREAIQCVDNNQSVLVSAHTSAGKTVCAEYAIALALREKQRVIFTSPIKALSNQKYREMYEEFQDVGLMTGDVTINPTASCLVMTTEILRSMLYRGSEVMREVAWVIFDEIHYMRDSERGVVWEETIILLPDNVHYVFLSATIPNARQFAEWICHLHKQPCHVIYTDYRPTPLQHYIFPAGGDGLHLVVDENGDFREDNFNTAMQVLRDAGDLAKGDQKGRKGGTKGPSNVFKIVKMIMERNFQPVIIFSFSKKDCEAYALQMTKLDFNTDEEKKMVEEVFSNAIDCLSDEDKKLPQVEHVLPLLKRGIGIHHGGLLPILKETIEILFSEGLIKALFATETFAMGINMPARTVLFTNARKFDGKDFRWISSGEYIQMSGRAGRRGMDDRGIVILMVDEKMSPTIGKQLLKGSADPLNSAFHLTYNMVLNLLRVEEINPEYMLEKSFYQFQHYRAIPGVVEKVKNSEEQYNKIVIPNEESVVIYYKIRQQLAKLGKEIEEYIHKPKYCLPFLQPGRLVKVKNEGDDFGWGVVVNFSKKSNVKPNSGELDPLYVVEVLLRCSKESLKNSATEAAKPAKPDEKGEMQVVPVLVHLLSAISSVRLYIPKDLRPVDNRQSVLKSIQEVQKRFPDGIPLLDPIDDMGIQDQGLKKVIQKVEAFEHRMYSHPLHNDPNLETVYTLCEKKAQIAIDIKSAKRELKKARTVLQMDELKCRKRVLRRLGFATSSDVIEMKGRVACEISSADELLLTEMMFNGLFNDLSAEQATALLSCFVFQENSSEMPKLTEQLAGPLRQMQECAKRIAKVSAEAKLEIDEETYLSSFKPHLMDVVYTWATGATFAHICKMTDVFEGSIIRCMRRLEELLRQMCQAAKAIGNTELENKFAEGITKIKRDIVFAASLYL
Further: in the data inactive means no Kd found up to 30 µM.

Chain of Bone morphogenetic protein receptor type-1A (P36894 whole entry): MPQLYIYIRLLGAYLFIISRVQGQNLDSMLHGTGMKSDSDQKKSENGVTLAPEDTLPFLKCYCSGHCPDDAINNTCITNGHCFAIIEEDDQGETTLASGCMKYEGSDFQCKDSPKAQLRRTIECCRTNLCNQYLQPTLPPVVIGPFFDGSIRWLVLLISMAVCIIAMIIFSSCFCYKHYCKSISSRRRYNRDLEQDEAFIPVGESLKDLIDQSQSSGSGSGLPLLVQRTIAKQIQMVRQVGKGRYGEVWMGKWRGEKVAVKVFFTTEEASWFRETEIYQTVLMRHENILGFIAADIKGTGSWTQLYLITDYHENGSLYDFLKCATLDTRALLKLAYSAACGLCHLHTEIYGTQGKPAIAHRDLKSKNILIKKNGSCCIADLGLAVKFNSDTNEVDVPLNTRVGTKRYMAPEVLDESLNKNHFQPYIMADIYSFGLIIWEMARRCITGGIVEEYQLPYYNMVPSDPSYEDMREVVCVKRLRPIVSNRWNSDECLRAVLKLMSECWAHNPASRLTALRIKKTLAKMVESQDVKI

As to `CNC(=O)c1cccc(-c2ccc3c(N4CCOC[C@@H]4C)nc(N4CCOC[C@@H]4C)nc3n2)c1` [VISTUSERTIB], the Kd (in experiment [1]; in experiment [2]; on Glycine--tRNA ligase; in experiment [3]; at LIM domain kinase 2; in experiment [4]) was > 30 µM (inactive) throughout. In addition, the Kd (on Rab-like protein 3; in experiment [5]; in experiment [6]; in experiment [7]) was > 30 µM (inactive) in each case.
Consider `COc1cc2nccc(Oc3ccc(NC(=O)C4(C(=O)Nc5ccc(F)cc5)CC4)cc3)c2cc1OC` [CABOZANTINIB], for which the Kd (commonly a measure of binding affinity in units of concentration) in [1] is > 30 µM (inactive); in experiment [2], 2.63 µM (active); on Glycine--tRNA ligase, > 30 µM (inactive); in experiment [3] it was > 30 µM (inactive); on LIM domain kinase 2, > 30 µM (inactive); in [4], > 30 µM (inactive). In addition, the Kd (on Rab-like protein 3; in [5]; in [6]; in [7]) was > 30 µM (inactive) each time.
Consider `Cc1cc(Nc2nc(N[C@@H](C)c3ncc(F)cn3)ncc2Cl)n[nH]1` [AZD-1480], for which the Kd (in experiment [1]; in experiment [2]; at Glycine--tRNA ligase; in experiment [3]; at LIM domain kinase 2; in experiment [4]) was > 30 µM (inactive) throughout. For the same compound, the Kd (at Rab-like protein 3; in experiment [5]; in [6]; in [7]) was > 30 µM (inactive) each time.
As for `C=CCN(/C=C1/C(=O)O[C@H](COC)[C@@]2(C)C1=C(O)C(=O)C1=C2[C@H](OC(C)=O)C[C@]2(C)C(=O)CC[C@@H]12)CC=C` [SONOLISIB], the Kd (in [1]; in [2]; at Glycine--tRNA ligase; in experiment [3]; at LIM domain kinase 2; in [4]) was > 30 µM (inactive) each time. Besides, the Kd is > 30 µM (inactive) on Rab-like protein 3, > 30 µM (inactive) in [5], 0.011 µM in experiment [6] and > 30 µM (inactive) in experiment [7].
In the case of `COc1cccc2cc(-c3nc([C@H]4CC[C@H](C(=O)O)CC4)n4ncnc(N)c34)[nH]c12` [OSI-027], the Kd in [1] was > 30 µM (inactive); in experiment [2], 12.6 µM (active); on Glycine--tRNA ligase it was > 30 µM (inactive); in [3] it was > 30 µM (inactive); on LIM domain kinase 2, > 30 µM (inactive); in experiment [4], > 30 µM (inactive). Also, the Kd (at Rab-like protein 3; in experiment [5]; in experiment [6]; in experiment [7]) was > 30 µM (inactive) each time.
In the case of `O=c1[nH]c([C@@H]2CCCN2)nc2c1oc1ccc(Cl)cc12`, the Kd (in experiment [1]; in [2]; on Glycine--tRNA ligase; in experiment [3]; at LIM domain kinase 2; in experiment [4]) was > 30 µM (inactive) each time. Further, the Kd (on Rab-like protein 3; in experiment [5]; in experiment [6]; in experiment [7]) was > 30 µM (inactive) throughout.
For the compound `CN1CCN(c2nc(C3=C(c4c[nH]c5ccccc45)C(=O)NC3=O)c3ccccc3n2)CC1` [SOTRASTAURIN], the Kd (in experiment [1]; in experiment [2]; on Glycine--tRNA ligase; in experiment [3]; at LIM domain kinase 2; in experiment [4]) was > 30 µM (inactive) throughout. In addition, the Kd (at Rab-like protein 3; in [5]; in experiment [6]; in experiment [7]) was > 30 µM (inactive) each time.
Turning to `CCN1CCN(Cc2ccc(Nc3ncc(F)c(-c4cc(F)c5nc(C)n(C(C)C)c5c4)n3)nc2)CC1` [ABEMACICLIB], the Kd (in experiment [1]; in experiment [2]; on Glycine--tRNA ligase; in experiment [3]; at LIM domain kinase 2; in experiment [4]) was > 30 µM (inactive) in each case. The Kd (at Rab-like protein 3; in experiment [5]; in experiment [6]; in experiment [7]) was > 30 µM (inactive) throughout.
`CNC(=O)c1ccc(Nc2ncc(C(F)(F)F)c(NCc3nccnc3N(C)S(C)(=O)=O)n2)cc1` [DEFACTINIB]: the Kd (in experiment [1]; in experiment [2]; at Glycine--tRNA ligase; in [3]; on LIM domain kinase 2; in experiment [4]) was > 30 µM (inactive) in each case. Further, the Kd (at Rab-like protein 3; in experiment [5]; in [6]; in [7]) was > 30 µM (inactive) in each case.
On to `Cc1c(Cn2c(C)nc3c(C(=O)O)cc(N4CCOCC4)cc32)cccc1C(F)(F)F` [GSK-2636771], for which the Kd (in experiment [1]; in [2]; at Glycine--tRNA ligase; in experiment [3]; on LIM domain kinase 2; in experiment [4]) was > 30 µM (inactive) in each case. The Kd (on Rab-like protein 3; in experiment [5]; in experiment [6]; in experiment [7]) was > 30 µM (inactive) throughout.
